Laboratory results as given in ChEMBL document CHEMBL4673307, “Pyrrolo[2,3-b]pyridine-3-one derivatives as novel fibroblast growth factor receptor 4 inhibitors for the treatment of hepatocellular carcinoma” (Bioorg Med Chem, 2021).

Columns and labels:
[1] = Metabolic stability in human liver microsomes assessed as half life at 1 uM incubated for 60 mins by LC-MS/MS analysis; format: ADME, Microsome
[2] = Metabolic stability in human liver microsomes assessed as intrinsic clearance at 1 uM incubated for 60 mins by LC-MS/MS analysis; format: ADME, Microsome; conditions: read-out: CLH
Hep 3B2 = assay: Antiproliferative activity against human Hep3B cells assessed as reduction in cell viability incubated for 72 hrs by Cell Titer-Glo assay
[3] = target: Fibroblast growth factor receptor 4 (Homo sapiens, UniProt P22455); assay: Inhibition of human FGFR4 using poly (Glu, Tyr)4:1 as substrate incubated for 20 mins followed by [33P]-ATP addition and measured after 120 mins by radiometric hotspot assay
[4] = Oral bioavailability in Sprague-Dawley rat at 10 mg/kg measured upto 24 hrs by LC-MS/MS analysis; format: ADME, organism-based; conditions: in vivo
[5] = MRTlast in Sprague-Dawley rat at 10 mg/kg, po measured upto 24 hrs by LC-MS/MS analysis; format: ADME, organism-based; conditions: in vivo
[6] = AUClast in Sprague-Dawley rat at 10 mg/kg, po measured upto 24 hrs by LC-MS/MS analysis; format: ADME, organism-based; set-up: route oral, dose 10 mg/kg, time <=24; conditions: in vivo
[7] = Half life in Sprague-Dawley rat at 10 mg/kg, po measured upto 24 hrs by LC-MS/MS analysis; format: ADME, organism-based; conditions: in vivo
[8] = Tmax in Sprague-Dawley rat at 10 mg/kg, po measured upto 24 hrs by LC-MS/MS analysis; format: ADME, organism-based; conditions: in vivo
[9] = Cmax in Sprague-Dawley rat at 10 mg/kg, po measured upto 24 hrs by LC-MS/MS analysis; format: ADME, organism-based; set-up: route oral, dose 10 mg/kg, time <=24; conditions: in vivo
[10] = AUClast in Sprague-Dawley rat at 1 mg/kg, iv measured upto 24 hrs by LC-MS/MS analysis; format: ADME, organism-based; set-up: route intravenous, dose 1 mg/kg, time <=24; conditions: in vivo
[11] = MRTlast in Sprague-Dawley rat at 1 mg/kg, iv measured upto 24 hrs by LC-MS/MS analysis; format: ADME, organism-based; conditions: in vivo
[12] = Half life in Sprague-Dawley rat at 1 mg/kg, iv measured upto 24 hrs by LC-MS/MS analysis; format: ADME, organism-based; conditions: in vivo
[13] = Tmax in Sprague-Dawley rat at 1 mg/kg, iv measured upto 24 hrs by LC-MS/MS analysis; format: ADME, organism-based; conditions: in vivo
[14] = Cmax in Sprague-Dawley rat at 1 mg/kg, iv measured upto 24 hrs by LC-MS/MS analysis; format: ADME, organism-based; set-up: route intravenous, dose 1 mg/kg, time <=24; conditions: in vivo

Fibroblast growth factor receptor 4, sequence (P22455 whole entry): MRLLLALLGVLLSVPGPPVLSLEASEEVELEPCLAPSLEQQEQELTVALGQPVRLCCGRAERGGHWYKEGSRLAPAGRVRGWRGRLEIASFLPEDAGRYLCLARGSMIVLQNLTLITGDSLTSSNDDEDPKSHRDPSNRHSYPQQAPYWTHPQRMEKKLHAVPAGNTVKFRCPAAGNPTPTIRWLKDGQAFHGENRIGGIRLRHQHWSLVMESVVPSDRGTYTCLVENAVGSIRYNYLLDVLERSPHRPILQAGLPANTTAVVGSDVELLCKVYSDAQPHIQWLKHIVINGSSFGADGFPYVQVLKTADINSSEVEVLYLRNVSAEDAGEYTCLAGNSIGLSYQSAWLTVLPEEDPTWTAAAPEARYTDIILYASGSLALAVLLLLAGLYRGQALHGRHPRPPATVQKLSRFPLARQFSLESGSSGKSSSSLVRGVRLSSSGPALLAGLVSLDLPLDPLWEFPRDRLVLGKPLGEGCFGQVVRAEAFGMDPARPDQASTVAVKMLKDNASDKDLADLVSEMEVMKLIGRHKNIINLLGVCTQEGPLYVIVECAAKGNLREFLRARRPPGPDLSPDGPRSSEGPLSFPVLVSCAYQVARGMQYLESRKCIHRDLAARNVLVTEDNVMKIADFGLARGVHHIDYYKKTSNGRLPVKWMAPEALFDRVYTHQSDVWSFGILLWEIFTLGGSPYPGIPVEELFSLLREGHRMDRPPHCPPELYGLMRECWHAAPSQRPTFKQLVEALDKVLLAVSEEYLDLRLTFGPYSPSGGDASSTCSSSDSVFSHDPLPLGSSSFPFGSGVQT

IC50 [3] [µM]	Structure (SMILES)	IC50 (Hep 3B2) [µM]	further results
> 1	C=CC(=O)N1CCN(CCn2cc(-c3cc(OC)cc(OC)c3)c3cnc(NC)nc32)CC1	> 10	–
> 1	CNc1ncc2c(-c3cc(OC)cc(OC)c3)noc2n1	> 10	–
> 1	C=CC(=O)N1CCN(CCn2nc(-c3cc(OC)cc(OC)c3)c3cnc(NC)nc32)CC1	> 10	–

More lines, now with the values behind:

Structure (SMILES)	IC50 [3] [µM]	IC50 (Hep 3B2) [µM]	further results
C=CC(=O)Nc1cccc(C)c1Nc1ncc2cc(-c3c(Cl)c(OC)cc(OC)c3Cl)ccc2n1	–	0.288	half-life at 1 µM [1]: 46.7 min; microsomal CLint at 1 µM [2]: 74.1 µL/min/mg
CC#CC(=O)N1CCN(CCCn2cc(-c3cc(OC)cc(OC)c3)c3cnc(NC)nc32)CC1	> 1	> 10	–
CC#CC(=O)Nc1ccccc1Nc1ccc2c(C(=O)c3cc(OC)cc(OC)c3)c[nH]c2n1	–	0.602	–
C=CC(=O)N1CCN(CCCn2cc(-c3cc(OC)cc(OC)c3)c3ccc(NC)nc32)CC1	–	> 10	–
C=CC(=O)N1CCN(CCn2cc(-c3ccc(OC)c(OC)c3)c3cnc(NC)nc32)CC1	> 1	> 10	–
C=CS(=O)(=O)Nc1ccccc1Nc1ccc2c(C(=O)c3cc(OC)cc(OC)c3)c[nH]c2n1	–	1.03	–
C=CS(=O)(=O)N1CCN(CCCn2cc(-c3cc(OC)cc(OC)c3)c3cnc(NC)nc32)CC1	> 1	> 10	–
C=CC(=O)Nc1ccccc1Nc1ccc2c(C(=O)c3cc(OC)cc(OC)c3)c[nH]c2n1	–	–	bioavailability [4]: 6.65%; MRT last at 24 h [5]: 227 min; AUC(0-t) at 24 h [6]: 206 ng·h/mL; half-life [7]: 463 min; Tmax [8]: 60 min; Cmax [9]: 33.9 ng/mL; AUC(0-t) at 24 h [10]: 277 ng·h/mL; MRT last at 24 h [11]: 46.2 min; half-life [12]: 51.6 min; Tmax [13]: 4.98 min; Cmax [14]: 361 ng/mL; half-life at 1 µM [1]: 62 min; microsomal CLint at 1 µM [2]: 55.9 µL/min/mg
C=CC(=O)NC1CCCCC1Nc1ccc2c(C(=O)c3cc(OC)cc(OC)c3)c[nH]c2n1 (centres undefined)	–	0.258	–
C=CC(=O)Nc1cccc(C)c1Nc1ccc2c(C(=O)c3cc(OC)cc(OC)c3)c[nH]c2n1	–	0.438	–
C=CC(=O)Nc1ccccc1Nc1ncc2c(-c3cc(OC)cc(OC)c3)n[nH]c2n1	–	4.09	–
